In ChEMBL document CHEMBL5226282, “TLR2 Agonistic Small Molecules: Detailed Structure-Activity Relationship, Applications, and Future Prospects” (J Med Chem, 2021):

Molecular target: Toll-like receptor 1/2 (Homo sapiens, UniProt O60603+Q15399)
Experiment: Agonist activity at TLR2/TLR1 in human THP-1 cells
Assay type: cell-based

Sequence of Toll-like receptor 1/2 (O60603 whole entry): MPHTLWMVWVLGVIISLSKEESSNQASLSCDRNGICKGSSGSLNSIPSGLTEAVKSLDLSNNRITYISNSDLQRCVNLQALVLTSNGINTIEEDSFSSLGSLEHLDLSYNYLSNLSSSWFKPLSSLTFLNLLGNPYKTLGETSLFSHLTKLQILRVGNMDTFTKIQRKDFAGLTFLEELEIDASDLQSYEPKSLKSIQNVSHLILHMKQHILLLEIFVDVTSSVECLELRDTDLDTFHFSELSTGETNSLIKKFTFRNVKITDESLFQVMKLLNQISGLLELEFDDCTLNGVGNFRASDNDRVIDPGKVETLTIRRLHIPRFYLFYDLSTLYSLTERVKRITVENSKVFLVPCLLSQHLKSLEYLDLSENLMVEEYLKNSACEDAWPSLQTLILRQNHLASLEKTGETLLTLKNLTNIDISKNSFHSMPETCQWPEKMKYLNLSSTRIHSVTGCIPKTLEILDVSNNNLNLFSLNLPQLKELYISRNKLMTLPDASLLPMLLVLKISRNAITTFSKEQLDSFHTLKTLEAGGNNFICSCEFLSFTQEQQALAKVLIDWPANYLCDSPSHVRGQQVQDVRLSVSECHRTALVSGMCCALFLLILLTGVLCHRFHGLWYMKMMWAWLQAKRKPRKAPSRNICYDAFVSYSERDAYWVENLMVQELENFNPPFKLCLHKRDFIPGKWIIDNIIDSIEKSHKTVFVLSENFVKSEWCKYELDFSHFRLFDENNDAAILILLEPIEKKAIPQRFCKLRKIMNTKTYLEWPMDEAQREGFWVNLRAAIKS
Sequence of Toll-like receptor 1/2 (Q15399 whole entry): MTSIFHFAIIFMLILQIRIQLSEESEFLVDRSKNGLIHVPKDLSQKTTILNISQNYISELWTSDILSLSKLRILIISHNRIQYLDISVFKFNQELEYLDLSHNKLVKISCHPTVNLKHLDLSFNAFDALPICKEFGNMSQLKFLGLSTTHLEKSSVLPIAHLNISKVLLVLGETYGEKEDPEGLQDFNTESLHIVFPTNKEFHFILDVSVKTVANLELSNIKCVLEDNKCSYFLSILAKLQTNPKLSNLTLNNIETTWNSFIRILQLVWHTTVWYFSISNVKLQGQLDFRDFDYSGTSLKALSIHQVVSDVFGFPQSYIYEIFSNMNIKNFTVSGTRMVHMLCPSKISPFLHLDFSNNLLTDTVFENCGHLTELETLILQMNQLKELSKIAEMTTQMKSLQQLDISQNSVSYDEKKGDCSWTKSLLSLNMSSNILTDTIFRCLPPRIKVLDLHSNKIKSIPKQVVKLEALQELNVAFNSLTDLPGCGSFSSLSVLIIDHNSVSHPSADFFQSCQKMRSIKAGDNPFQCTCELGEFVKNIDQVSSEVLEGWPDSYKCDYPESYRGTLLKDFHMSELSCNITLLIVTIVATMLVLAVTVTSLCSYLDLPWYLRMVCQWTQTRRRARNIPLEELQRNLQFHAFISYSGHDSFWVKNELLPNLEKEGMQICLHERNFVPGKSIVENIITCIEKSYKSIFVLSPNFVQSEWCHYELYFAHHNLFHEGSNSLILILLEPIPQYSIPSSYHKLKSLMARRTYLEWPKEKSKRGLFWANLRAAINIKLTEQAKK

Question: `COc1ccc(CCNC(=O)[C@@H]2CN(C(=O)c3ccc(C(=O)N4C[C@@H](C(=O)NCCc5ccc(OC)cc5)[C@H](C(=O)NCCc5ccc(OC)cc5)C4)cc3)C[C@H]2C(=O)NCCc2ccc(OC)cc2)cc1` (racemic) was tested. Which EC50 did it give?
Answer: The EC50 was > 5 µM.

Question: With `Cc1ccc(CCNC(=O)[C@@H]2CN(C(=O)c3ccc(C(=O)N4C[C@@H](C(=O)NCCc5ccc(C)cc5)[C@H](C(=O)NCCc5ccc(C)cc5)C4)cc3)C[C@H]2C(=O)NCCc2ccc(C)cc2)cc1` (racemic) as the molecule, how does the EC50 read?
Answer: Its EC50 is > 5 µM.

Question: How did the EC50 turn out when `COC(=O)c1ccc(CCNC(=O)[C@@H]2CN(C(=O)c3ccc(C(=O)N4C[C@@H](C(=O)NCCc5ccc(C(=O)OC)cc5)[C@H](C(=O)NCCc5ccc(C(=O)OC)cc5)C4)cc3)C[C@H]2C(=O)NCCc2ccc(C(=O)OC)cc2)cc1` (racemic) was run?
Answer: Its EC50 is > 5 µM.

Question: With `O=C(NCCc1ccc(Br)cc1)[C@@H]1CN(C(=O)c2ccc(C(=O)N3C[C@@H](C(=O)NCCc4ccc(Br)cc4)[C@H](C(=O)NCCc4ccc(Br)cc4)C3)cc2)C[C@H]1C(=O)NCCc1ccc(Br)cc1` (racemic) as the molecule, how does the EC50 read?
Answer: The EC50 was > 5 µM.

Question: For `O=C(NCCc1ccc(-c2ccccc2)cc1)[C@@H]1CN(C(=O)c2ccc(C(=O)N3C[C@@H](C(=O)NCCc4ccc(-c5ccccc5)cc4)[C@H](C(=O)NCCc4ccc(-c5ccccc5)cc4)C3)cc2)C[C@H]1C(=O)NCCc1ccc(-c2ccccc2)cc1` (racemic), which EC50 is on record?
Answer: Its EC50 is > 5 µM.

Question: Which EC50 does the source give for `Nc1ccc(CCNC(=O)[C@@H]2CN(C(=O)c3ccc(C(=O)N4C[C@@H](C(=O)NCCc5ccc(N)cc5)[C@H](C(=O)NCCc5ccc(N)cc5)C4)cc3)C[C@H]2C(=O)NCCc2ccc(N)cc2)cc1` (racemic) here?
Answer: Its EC50 is > 5 µM.

Question: Which EC50 does the source give for `O=C(NCCc1ccccc1)[C@@H]1CN(C(=O)c2ccc(C(=O)N3C[C@@H](C(=O)NCCc4ccc5ccccc5c4)[C@H](C(=O)NCCc4ccc5ccccc5c4)C3)cc2)C[C@H]1C(=O)NCCc1ccc2ccccc2c1` (racemic) here?
Answer: Its EC50 is > 5 µM.

Question: With `O=C(NCCc1ccc([N+](=O)[O-])cc1)[C@@H]1CN(C(=O)c2ccc(C(=O)N3C[C@@H](C(=O)NCCc4ccc([N+](=O)[O-])cc4)[C@H](C(=O)NCCc4ccc([N+](=O)[O-])cc4)C3)cc2)C[C@H]1C(=O)NCCc1ccc([N+](=O)[O-])cc1` (racemic) as the molecule, how does the EC50 read?
Answer: Its EC50 is > 5 µM.

Question: Which EC50 does the source give for `O=C(NCCc1ccc(Cl)cc1)[C@@H]1CN(C(=O)c2ccc(C(=O)N3C[C@@H](C(=O)NCCc4ccc(Cl)cc4)[C@H](C(=O)NCCc4ccc(Cl)cc4)C3)cc2)C[C@H]1C(=O)NCCc1ccc(Cl)cc1` (racemic) here?
Answer: The EC50 was > 5 µM.

Question: Which EC50 does the source give for `O=C(NCCc1ccc(O)cc1)[C@@H]1CN(C(=O)c2ccc(C(=O)N3C[C@@H](C(=O)NCCc4ccc(O)cc4)[C@H](C(=O)NCCc4ccc(O)cc4)C3)cc2)C[C@H]1C(=O)NCCc1ccc(O)cc1` (racemic) here?
Answer: Its EC50 is > 5 µM.

Question: For `O=C(NCCc1ccccc1F)[C@@H]1CN(C(=O)c2ccc(C(=O)N3C[C@@H](C(=O)NCCc4ccccc4F)[C@H](C(=O)NCCc4ccccc4F)C3)cc2)C[C@H]1C(=O)NCCc1ccccc1F` (racemic), which EC50 is on record?
Answer: The EC50 was > 5 µM.

Question: With `N#Cc1ccc(CCNC(=O)[C@@H]2CN(C(=O)c3ccc(C(=O)N4C[C@@H](C(=O)NCCc5ccc(C#N)cc5)[C@H](C(=O)NCCc5ccc(C#N)cc5)C4)cc3)C[C@H]2C(=O)NCCc2ccc(C#N)cc2)cc1` (racemic) as the molecule, how does the EC50 read?
Answer: Its EC50 is > 5 µM.

Question: For `O=C(NCCc1ccc(C(F)(F)F)cc1)[C@@H]1CN(C(=O)c2ccc(C(=O)N3C[C@@H](C(=O)NCCc4ccc(C(F)(F)F)cc4)[C@H](C(=O)NCCc4ccc(C(F)(F)F)cc4)C3)cc2)C[C@H]1C(=O)NCCc1ccc(C(F)(F)F)cc1` (racemic), which EC50 is on record?
Answer: Its EC50 is > 5 µM.

Molecular target: Toll-like receptor 1/2 (Mus musculus)
Experiment: Agonist activity at TLR2/TLR1 in mouse Macrophage cell line

Question: With `CCCCCCCCNC(=O)[C@@H]1CN(C(=O)c2ccc(C(=O)N3C[C@@H](C(=O)NCCCCCCCC)[C@H](C(=O)NCCCCCCCC)C3)cc2)C[C@H]1C(=O)NCCCCCCCC` as the molecule, how does the EC50 read?
Answer: The EC50 was > 0.005 µM.

Question: For `CCCCCCCCCCNC(=O)[C@@H]1CN(C(=O)c2ccc(C(=O)N3C[C@@H](C(=O)NCCCCCCCCCC)[C@H](C(=O)NCCCCCCCCCC)C3)cc2)C[C@H]1C(=O)NCCCCCCCCCC`, which EC50 is on record?
Answer: Its EC50 is > 0.005 µM.

Question: Which EC50 does the source give for `CCCCCCNC(=O)[C@@H]1CN(C(=O)c2ccc(C(=O)N3C[C@@H](C(=O)NCCCCCC)[C@H](C(=O)NCCCCCC)C3)cc2)C[C@H]1C(=O)NCCCCCC` here?
Answer: The EC50 was > 0.005 µM.
